Consider 1 compound from publication PMC5791972 (PLoS ONE, 2018).

Molecules are shown by their SMILES. Where two headings read alike, the source gives them in different places.

For this assay, the target named is T1, 5-HT2C (h) (Homo sapiens, UniProt P28335).
T1 construct: host or cells: HEK-293 cells
T1 sequence (P28335 33-458): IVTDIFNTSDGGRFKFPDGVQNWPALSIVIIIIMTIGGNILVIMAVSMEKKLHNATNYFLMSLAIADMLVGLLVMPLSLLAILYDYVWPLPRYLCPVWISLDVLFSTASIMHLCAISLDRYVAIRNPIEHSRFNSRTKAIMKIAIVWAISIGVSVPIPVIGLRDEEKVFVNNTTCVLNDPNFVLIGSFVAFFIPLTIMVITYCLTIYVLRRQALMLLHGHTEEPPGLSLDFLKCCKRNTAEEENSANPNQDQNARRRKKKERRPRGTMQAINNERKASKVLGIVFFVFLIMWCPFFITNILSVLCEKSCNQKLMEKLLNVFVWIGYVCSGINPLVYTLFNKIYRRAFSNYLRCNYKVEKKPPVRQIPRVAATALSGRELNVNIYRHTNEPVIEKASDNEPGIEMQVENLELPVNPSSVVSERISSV
It is filed as binding. To be noted: 1.0E-06 M.

As a reminder, the inhibition is the drop in the measured response relative to a control, in per cent. Consider `Cn1c(=O)n(CCCO)c(=O)c2c1nc(Oc1cccc(OC(F)(F)F)c1)n2Cc1ccc(Cl)cc1` [HC-608], for which the inhibition at 1 µM was determined as 12.1% (read-out: % Inhibition 1st), 12.6% (read-out: % Inhibition 2nd) and 12.3% (read-out: % Inhibition Mean).
